Measured values published in PubChem BioAssay (NCI).
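A five-concentration, 48-hour dose response in 96-well plates underlies each endpoint, interpolated linearly between surrounding concentrations. GI50: concentration for 50% inhibition of growth. TGI is the concentration that stops growth completely.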

Columns and labels:
Assay in all cases: NCI-60 cell line screen, 48 h
[1] = system: ACHN renal
[2] = system: BT-549 breast
[3] = system: MALME-3M melanoma
[4] = system: MDA-MB-231 breast
[5] = system: OVCAR-3 ovarian
[6] = system: SK-OV-3 ovarian
[7] = system: TK-10 renal
[8] = system: UO-31 renal
[9] = system: MDA-N
[10] = system: PC-3 prostate
[11] = system: DLD-1 colon

Compound `COc1ccccc1C1C(C#N)=C(N)OC2=C1C(=O)CCC2` (centres undefined) has a GI50 [1] of over 100 µM, a TGI [1] of over 100 µM and a GI50 [2] of over 100 µM. It also gave a TGI [2] of over 100 µM, a GI50 [3] of over 100 µM and a TGI [3] of over 100 µM. It also gave a GI50 [4] of 16.2 µM, a TGI [4] of over 100 µM and a GI50 [5] of over 100 µM. The TGI [5] was over 100 µM, the GI50 [6] was over 100 µM and the TGI [6] was over 100 µM. For the same compound, the GI50 [7] was over 100 µM, the TGI [7] was over 100 µM and the GI50 [8] was over 100 µM. The TGI [8] was over 100 µM.

`CCCCc1ccc2[n+](c1)C(C(=O)OCC)=PC2` (centres undefined) gave a TGI [1] of over 100 µM, a TGI [2] of over 100 µM and a TGI [3] of over 100 µM. It also gave a TGI [9] of over 100 µM, a TGI [5] of over 100 µM and a TGI [10] of over 100 µM. For the same compound, the TGI [6] was over 100 µM and the TGI [7] was over 100 µM.

`O=C1c2ccccc2-c2ccc(NC(=O)C3CCCCC3C(=O)O)cc21` (centres undefined) gave a TGI [1] of over 100 µM, a TGI [2] of over 100 µM and a TGI [3] of over 100 µM. It also gave a TGI [4] of over 100 µM, a TGI [9] of over 100 µM and a TGI [5] of over 100 µM. The TGI [10] was over 100 µM, the TGI [6] was over 100 µM and the TGI [7] was over 100 µM. The TGI [8] was over 100 µM.

`COc1ccc(C(=O)Cc2cc(OC)ccc2OC)cc1` was tested, and the TGI [1] was over 100 µM, the TGI [11] was over 100 µM and the TGI [3] was over 100 µM. For the same compound, the TGI [5] was over 100 µM, the TGI [6] was over 100 µM and the TGI [7] was over 100 µM. The TGI [8] was over 100 µM.

For `Cc1cc(NS(=O)(=O)c2ccc(Nc3c4ccccc4nc4c(C(=O)NCCN(C)C)ccc(Cl)c34)cc2)no1`, the TGI [1] was 12.3 µM, the TGI [11] was 17 µM and the TGI [5] was 23.9 µM. For the same compound, the TGI [7] was 27.1 µM and the TGI [8] was 7.84 µM.

Work on `CC(C)=CCN(N=O)c1ncnc2nc[nH]c12` yielded a TGI [1] of over 100 µM, a TGI [3] of over 100 µM and a TGI [4] of over 100 µM. For the same compound, the TGI [9] was over 100 µM, the TGI [5] was over 100 µM and the TGI [10] was over 100 µM. For the same compound, the TGI [6] was over 100 µM, the TGI [7] was over 100 µM and the TGI [8] was over 100 µM.

`CCOC(=O)C1C(c2cc(OC)c(O)c(OC)c2)c2cc3c(cc2OC1(C)O)OCO3` (centres undefined) gave a TGI [1] of over 100 µM, a TGI [11] of over 100 µM and a TGI [3] of over 100 µM. The TGI [5] was over 100 µM, the TGI [6] was over 100 µM and the TGI [7] was over 100 µM. It also gave a TGI [8] of over 100 µM.

`Cc1ccc2c(c1)c(=O)c1c(NCCN(C)C)ccc3nnn2c31` gave a TGI [1] of 17.7 µM, a TGI [11] of 20 µM and a TGI [3] of 18 µM. It also gave a TGI [5] of over 42.8 µM, a TGI [6] of 37.6 µM and a TGI [7] of 28.3 µM. The TGI [8] was 23.9 µM.
